{"source": "patent US10604741B2", "about": "“Compositions and methods for enhancing virus replication” (TURNSTONE LIMITED PARTNERSHIP, priority 2013, dated 2020)", "molecules": {"B1": {"name": "mFGF2: recombinant murine FGF2 protein; amino acid sequence shown in SEQ ID NO: 11 (protein)", "chain": "MAASGITSLPALPEDGGAAFPPGHFKDPKRLYCKNGGFFLRIHPDGRVDGVREKSDPHVKLQLQAEERGVVSIKGVCANRYLAMKEDGRLLASKCVTEECFFFERLESNNYNTYRSRKYSSWYVALKRTGQYKLGSKTGPGQKAILFLPMSAKS", "modifications": "recombinant mouse protein"}}, "key": {"VSVΔ51 in 786-0 cells [1]": {"tested_on": "VSVΔ51 in 786-0 cells", "assay_type": "cell-based, human"}, "VSVΔ51 in OVCAR8 cells": {"tested_on": "VSVΔ51 in OVCAR8 cells", "assay_type": "cell-based, human", "details": "24 hours"}, "VSVΔ51 in WI38 cells": {"tested_on": "VSVΔ51 in WI38 cells", "assay_type": "cell-based, human", "details": "24 hours"}, "VSVΔ51 in CT26 cells": {"tested_on": "VSVΔ51 in CT26 cells", "assay_type": "cell-based, mouse", "details": "24 hours"}, "VSVΔ51 in GM38 cells": {"tested_on": "VSVΔ51 in GM38 cells", "assay_type": "cell-based, human", "details": "24 hours"}, "VSVΔ51 in 786-0 cells [2]": {"tested_on": "VSVΔ51 in 786-0 cells", "assay_type": "cell-based, human", "details": "24 hours"}, "VSV in 786-0 cells": {"tested_on": "VSV in 786-0 cells", "assay_type": "cell-based, human", "details": "24 hours"}, "MG1 in 786-0 cells": {"tested_on": "MG1 in 786-0 cells", "assay_type": "cell-based, human", "details": "24 hours"}, "JX594-GFP in 786-0 cells [3]": {"tested_on": "JX594-GFP in 786-0 cells", "assay_type": "cell-based, human", "details": "48 hours"}, "Reovirus in 786-0 cells": {"tested_on": "Reovirus in 786-0 cells", "assay_type": "cell-based, human", "details": "48 hours"}, "HSV-1 in 786-0 cells": {"tested_on": "HSV-1 in 786-0 cells", "assay_type": "cell-based, human", "details": "48 hours"}, "VSVΔ51 in 786-0 tumors [4]": {"tested_on": "VSVΔ51 in 786-0 tumors", "assay_type": "cell-based, SCID mice"}, "VSVΔ51 in MiaPaca tumors [5]": {"tested_on": "VSVΔ51 in MiaPaca tumors", "assay_type": "cell-based, SCID mice"}, "VSVΔ51 in MiaPaca tumors [6]": {"tested_on": "VSVΔ51 in MiaPaca tumors", "assay_type": "in vivo, SCID mice", "details": "72 hours"}, "VSVΔ51 in OVCAR8 tumors": {"tested_on": "VSVΔ51 in OVCAR8 tumors", "parameters": "species or system SCID mice", "details": "mouse, in vivo, iv"}, "VSVΔ51 in 786-0 tumors [7]": {"tested_on": "VSVΔ51 in 786-0 tumors", "parameters": "species or system SCID mice", "details": "mouse, in vivo, iv"}, "[8]": {"tested_on": "human H1N1 Influenza A strain FM/1/47 in MRC5 cells", "assay": "Influenza A titers in MRC5 cells treated with FGF2, nucleoprotein ELISA", "assay_type": "cell-based", "details": "FGF2 100 ng/ml, serum free media; MOI 0.05 or 0.1; FIG. 21", "experimental": "MRC5 cells were treated with 100 ng/ml FGF2, 100 ng/ml leptin, or mock treated, in serum free media.\n48 hours later, cells were infected with the human H1N1 Influenza A strain FM/1/47 at MOI 0.05 or 0.1, as indicated, in the presence of 1 μg/ml TPCK trypsin. 48 h (MOI 0.1) or 72 h (MOI 0.05) later, supernatants from triplicate wells were collected and pooled. Viral titers were obtained by ELISA for Influenza A nucleoprotein. The resulting titers are illustrated in FIG. 21."}, "[9]": {"tested_on": "Measles virus (Edmonston strain) in WI38 cells", "assay": "Measles virus titers in WI38 cells treated with FGF2, plaque assay", "assay_type": "cell-based, human", "details": "FGF2 100 ng/ml, serum free media; MOI 0.1; 48 hours; FIG. 22", "experimental": "WI38 cells were treated with 100 ng/ml FGF2, or mock treated, in serum free media.\n24 hours later, cells were infected with Measles virus (Edmonston strain) at an MOI 0.1. 48 hours later, supernatants were collected and virus titration was performed by plaque assay in Vero cells. The resulting titers are illustrated in FIG. 22."}, "VSVΔ51 in MC38 cells": {"tested_on": "VSVΔ51 in MC38 cells", "assay_type": "cell-based, mouse", "details": "48 hours"}, "[10]": {"assay": "Enhancement of virus replication, test not described", "details": "no test details given"}, "JX594-GFP in 786-0 cells [11]": {"tested_on": "JX594-GFP in 786-0 cells", "assay_type": "cell-based, human"}}, "note": "Where two headings read alike, the source gives them in different places."}
{"molecule": "FGF2: recombinant human FGF2 protein; amino acid sequence shown in SEQ ID NO: 9", "values": [{"measurement": "rate of production of VSVΔ51 compared to untreated 786-0 cells", "setting": "VSVΔ51 in 786-0 cells [1]", "result": "increased"}, {"measurement": "FGF2 concentration at which enhanced VSVΔ51 replication is seen", "setting": "VSVΔ51 in 786-0 cells [1]; 24 hours", "result": "≤ 20", "unit": "ng/mL"}, {"measurement": "total PFU/mL, fold higher than untreated or FGF1-treated cells", "setting": "VSVΔ51 in 786-0 cells [1]; 24 hours", "result": "at least 15 fold"}, {"measurement": "virus replication vs untreated cells", "setting": "VSVΔ51 in 786-0 cells [1]; 24 hours", "result": "enhanced virus replication"}, {"measurement": "pfu/ml in cell associated supernatants", "setting": "VSVΔ51 in 786-0 cells [1]; after 6 hours", "result": "about 1E2 pfu/ml"}, {"measurement": "plaque forming units/mL in cell associated supernatants", "setting": "VSVΔ51 in 786-0 cells [1]; after 48 hours", "result": "about 5E6 pfu/mL"}, {"measurement": "total PFU/mL, fold higher than untreated or FGF1-treated cells", "setting": "VSVΔ51 in OVCAR8 cells", "result": "at least 15 fold"}, {"measurement": "total PFU/mL, fold higher than untreated or FGF1-treated cells", "setting": "VSVΔ51 in WI38 cells", "result": "at least 15 fold"}, {"measurement": "total PFU/mL, fold higher than untreated or FGF1-treated cells", "setting": "VSVΔ51 in CT26 cells", "result": "at least 15 fold"}, {"measurement": "effect on virus replication", "setting": "VSVΔ51 in GM38 cells", "result": "did not significantly affect virus replication"}, {"measurement": "virus titers, fold higher compared to control (untreated and FGF1-treated) cells", "setting": "VSVΔ51 in 786-0 cells [2]", "result": 10, "unit": "fold"}, {"measurement": "virus replication vs untreated cells", "setting": "VSV in 786-0 cells", "result": "enhanced virus replication"}, {"measurement": "virus replication vs untreated cells", "setting": "MG1 in 786-0 cells", "result": "enhanced virus replication"}, {"measurement": "virus replication vs untreated cells", "setting": "JX594-GFP in 786-0 cells [3]", "result": "enhanced virus replication"}, {"measurement": "virus replication vs untreated cells", "setting": "Reovirus in 786-0 cells", "result": "enhanced virus replication"}, {"measurement": "virus replication vs untreated cells", "setting": "HSV-1 in 786-0 cells", "result": "enhanced virus replication"}, {"measurement": "ex-vivo virus infection and GFP expression, fluorescent pictures", "setting": "VSVΔ51 in 786-0 tumors [4]", "result": "increased ex-vivo virus infection and transgene protein expression (GFP)"}, {"measurement": "ex vivo virus production (virus titers)", "setting": "VSVΔ51 in 786-0 tumors [4]; 48 hours", "result": "enhancement of ex vivo virus production"}, {"measurement": "ex-vivo virus infection and GFP expression, fluorescent pictures", "setting": "VSVΔ51 in MiaPaca tumors [5]", "result": "increased ex-vivo virus infection and transgene protein expression (GFP)"}, {"measurement": "ex vivo virus production (virus titers)", "setting": "VSVΔ51 in MiaPaca tumors [5]; 48 hours", "result": "enhancement of ex vivo virus production"}, {"measurement": "VSVΔ51 titers in tumors", "setting": "VSVΔ51 in MiaPaca tumors [6]", "result": "enhanced virus replication"}, {"measurement": "VSVΔ51 titers in tumors", "setting": "VSVΔ51 in OVCAR8 tumors", "result": "enhanced virus replication"}, {"measurement": "VSVΔ51 titers in tumors", "setting": "VSVΔ51 in 786-0 tumors [7]", "result": "enhanced virus replication"}, {"measurement": "influenza viral replication (viral titers)", "setting": "[8]", "result": "Enhanced Viral Replication"}, {"measurement": "measles viral replication (virus titers)", "setting": "[9]", "result": "Enhanced Viral Replication"}, {"measurement": "Virus titre", "setting": "VSVΔ51 in MC38 cells", "result": "7.73e6 ± 9.8e5", "unit": "pfu/mL"}]}
{"molecule": "SEQ ID NO: 14: human recombinant FGF2 protein (Accession: # P09038)", "values": [{"measurement": "virus replication", "setting": "[10]", "result": "enhance virus replication"}]}
{"molecule": "B1", "values": [{"measurement": "Average of pixel intensity", "setting": "JX594-GFP in 786-0 cells [11]", "result": 24.90}, {"measurement": "Relative pixel intensity increase", "setting": "JX594-GFP in 786-0 cells [11]", "result": 4.37}, {"measurement": "Average of pixel intensity", "setting": "JX594-GFP in 786-0 cells [11]; after 48 hours", "result": 24.90}, {"measurement": "Relative pixel intensity increase", "setting": "JX594-GFP in 786-0 cells [11]; after 48 hours", "result": 4.37}, {"measurement": "Virus titre", "setting": "VSVΔ51 in MC38 cells", "result": "8.20e6 ± 1.1e6", "unit": "pfu/mL"}]}
